Data on 3 compounds can be found in US7629368B2, “Nitroderivatives as drugs for diseases having an inflammatory basis” (Nicox S.A., priority 2000, dated 2009).

The term melting point denotes the temperature of the solid-liquid transition. Usually inhibition stands for the change of the read-out against control, counted positive when it falls.

Data set [1] has as its system Human adenocarcinoma (HT29) cells. Briefly: Antiproliferative activity in cancerous cells, cellular growth by haemocytometer. It counts as cell-based. Conditions: 96 hours, controls = 100, read-out: Proliferation %. The procedure:
Determination of the Antiproliferative Activity of the Compounds of the Invention in Cancerous Cells.
Human adenocarcinoma (HT29) cells taken from colon affected by cancerous process were transferred into plates with 24 wells containing a cellular culture medium formed by 10% of foetal bovine serum, penicillin (50 U/ml), streptomycin ([…]) and PEG 400 (polyethylenglycol). After 24 hours a part of the plates is inoculated with the tested compounds dissolved in the carrier (PEG 400). 96 hours after the inoculation of the compounds the cellular growth was measured by haemocytometer. The results, reported in Table 2, are expressed as percentage of the cellular proliferation with respect to the controls.

Data set [2] has as its system LNCaP human epithelial cells of prostate cancer. The data set is described as follows: Antiproliferative activity, MTT, prostate cancer line LNCaP. It counts as cell-based. The settings on record: 96 h, 4 days, vs DMSO 1%, read-out: Inhibition of the proliferative activity (%); for inhibition at 100 µM: 10^-4 M; for inhibition at 10 µM: 10^-5 M; for inhibition at 1 µM: 10^-6 M. The method, then: (§1) Determination of the Antiproliferative Activity of the Compounds of the Invention in Cancerous Epithelial Cells of Bladder and Prostate.
(§2) The experiment was carried out by using three human epithelial cellular lines of the prostate cancer (PNT1A; LLNCaP; PC3) and three human epithelial cellular lines of the bladder cancer (T24; 647V; 1207), the various types of cellular lines are identified on the basis of the characteristics, in particular of the aggressiveness, of the cancerous process.
(§3) The cancerous cells are sown, with an initial concentration of 20,000 cells/cm^2, in plates having 96 wells with a cellular culture medium RPMI added with foetal bovine serum 5% and L-Glutamine 1%. Solutions in dimethylsulphoxide of the tested compounds at three different concentrations (10^−6 M; 10^−5M; 10^−4M) or the carrier (DMSO 1%) are added to the culture medium. 4 days after the treatment the cellular growth was measured by the method with MTT (3-[4,5-dimethylthiazol-2-yl]-2,5-diphenyltetrazolium bromide) de-scribed by Turner in: Turner T., Chen P., Goodly L. J., Wells A. Clin. Exp. Metastasis 1996, 14, 409-418. The results, reported in Table 3, are expressed as inhibition percentage of the cellular proliferation determined by measuring the cellular proliferation in the cellular cultures treated with the tested compounds with respect to that measured in cellular cultures treated with dimethylsulphoxide 1%.

In data set [3] the test system is liver injury induced by concanavalin A. Briefly: Protection from liver injury induced by concanavalin A. The data set is classed as in vivo. Conditions: ip; plasmatic glutamic-pyruvic transaminase vs treated control group (=100); 200 mg/kg intraperitoneal; 8 hours after concanavalin A 0.3 mg/rat i.v. An excerpt:
Determination of the capability of the compounds of the invention to protect the animals from the liver injury induced by concanavalin A.
The model in vivo used in the present example has been described in Tiegs G, Hentshel J, A Wendel. A T cell-dependent experimental liver injury in mice induced by Concanavalin A. J. Clin. Invest. 1992; 90:196-203.
The animals ([…] of Swiss stock weighing about 20 g) are divided in groups of at least No. 10 animals for group.
The animals receive concanavalin and solvent (treated control group), solvent (polyethylene glycol 400-untreated control group), concanavalin and tested compound dissolved in the solvent (treated groups).
Rats are treated intravenously with concanavalin A (0.3 mg/rat), and after 5 minutes they receive by intraperitoneal injection the tested compounds, at the doses reported in Table 1, dissolved in polyethylenglycol 400.
Eight hours after the concanavalin A injection all the animals were sacrificed and the blood collected and examined. The data, reported in Table 1, are expressed as value of the plasmatic glutamic-pyruvic transaminase percentage of the animals treated with the tested compound with respect to the animals of the treated control group.

The test system of data set [4] is T24 human epithelial cells of bladder cancer. Briefly: Antiproliferative activity, MTT, bladder cancer line T24. The data set is classed as cell-based. Conditions: Epithelial cell, 96 h, 4 days, vs DMSO 1%, read-out: Inhibition of the proliferative activity (%); for inhibition at 100 µM: 10^-4 M; for inhibition at 10 µM: 10^-5 M; for inhibition at 1 µM: 10^-6 M. The method, then:
as §1, §2, §3

The test system of data set [5] is PC3 human epithelial cells of prostate cancer. Briefly: Antiproliferative activity, MTT, prostate cancer line PC3. It counts as cell-based. The settings on record: Epithelial cell, 96 h, 4 days, vs DMSO 1%, read-out: Inhibition of the proliferative activity (%); for inhibition at 100 µM: 10^-4 M; for inhibition at 10 µM: 10^-5 M; for inhibition at 1 µM: 10^-6 M. The method, then:
as §1, §2, §3

The test system of data set [6] is 647V human epithelial cells of bladder cancer. The data set is described as follows: Antiproliferative activity, MTT, bladder cancer line 647V. The data set is classed as cell-based. Conditions: 96 h, 4 days, vs DMSO 1%, read-out: Inhibition of the proliferative activity (%); for inhibition at 100 µM: 10^-4 M; for inhibition at 10 µM: 10^-5 M; for inhibition at 1 µM: 10^-6 M. The procedure:
as §1, §2, §3

In data set [7] the test system is human epithelial cellular lines of the prostate cancer and of the bladder cancer. Briefly: Antiproliferative activity in prostate and bladder cancer lines, summary in words. It counts as cell-based. The procedure: as §2, §3
The compound of Ex. 7, reported in the Table with the simplified denomination of nitrooxybutyl ester of the aspirin der. with ferulic ac. is active, at 10^−5 concentrations, in prostate tumours as shown by the results obtained on the cellular lines LNCaP and PC3.

The subject of data set [8] is 1207 human epithelial cells of bladder cancer. Briefly: Antiproliferative activity, MTT, bladder cancer line 1207. It counts as cell-based. Conditions: Epithelial cell, 96 h, 4 days, vs DMSO 1%, read-out: Inhibition of the proliferative activity (%); for inhibition at 100 µM: 10^-4 M; for inhibition at 10 µM: 10^-5 M; for inhibition at 1 µM: 10^-6 M. The procedure: as §1, §2, §3

For data set [9], the system named is PNT1A human epithelial cells of prostate cancer. Briefly: Antiproliferative activity, MTT, prostate cancer line PNT1A. The data set is classed as cell-based. Conditions: 96 h, 4 days, vs DMSO 1%, read-out: Inhibition of the proliferative activity (%); for inhibition at 100 µM: 10^-4 M; for inhibition at 10 µM: 10^-5 M; for inhibition at 1 µM: 10^-6 M. The method, then: as §1, §2, §3

On to `CC(=O)Oc1ccccc1C(=O)Oc1ccc(CO[N+](=O)[O-])cc1` [Ex. 6, 2-(acetyloxy)benzoic Acid 4-(nitrooxymethyl)phenyl ester], for which the melting point lay in the range of 86 to 88 °C. Moreover, in [1] (HT-29, 10 μM), the activity at 10 µM amounted to 0%.

Turning to `CC1=C(CC(=O)OCCCCO[N+](=O)[O-])c2cc(F)ccc2/C1=C\c1ccc([S+](C)[O-])cc1` (stereo not shown) [Ex. 18], the inhibition at 100 µM in data set [2] was found to be 88%; in data set [4], 93%; in data set [5], 74%; in data set [6], 92%; in [8], 88%; in [9] it was 81%. For the same compound, the inhibition at 10 µM in data set [2] came to 74%; in [4], 82%; in data set [5], 68%; in [6], 80%; in [8], 74%; in data set [9] it was 38%. Besides, the inhibition at 1 µM in [2] worked out at 17%; in data set [4] it was 0%; in data set [5] it was 5%; in [6] it was 9%; in [8] it was 0%; in [9], 3%. The compound also registered a response vs control in vivo at 200 mg/kg in data set [3] of 18%. In data set [7] (10^-5 M, all six prostate and bladder lines), the “inhibitory effect on the proliferation of all kinds of cancerous cells examined (in words)” value is “strong inhibitory effect”. Besides, the activity at 50 µM in data set [1] (HT-29, 50 μM) is 0%.

As to `COc1cc(/C=C/C(=O)OCCCCO[N+](=O)[O-])ccc1OC(=O)c1ccccc1OC(C)=O` [Ex. 7, trans-3-[4-[2-(acetyloxy)benzoyloxy]-3-methoxyphenyl]-2-propenoic acid 4-(nitrooxy)butyl ester], the inhibition at 100 µM in [2] turned out to be 81%; in data set [4], 55%; in [5] it was 69%; in [6] it was 50%; in data set [8], 82%; in data set [9] it was 72%. In addition, the inhibition at 10 µM was found to be 47% in data set [2]; 0% in data set [4]; 30% in [5]; 0% in data set [6]; 24% in [8]; 0% in data set [9]. The inhibition at 1 µM in data set [2] was 20%; in [4], 2%; in [5], 1%; in [6], 0%; in data set [8] it was 4%; in [9], 0%. Besides, the “activity in prostate tumours (in words)” value in data set [7] (10^-5 concentrations, cellular lines LNCaP and PC3) is given as “active”. The activity at 300 µM in data set [1] (HT-29, 300 μM) stood at 50%.
